Experimental findings from ChEMBL document CHEMBL1145625, “QSAR study of mosquito repellents from terpenoid with a six-member-ring” (2008) are described below.

The assay relates to Culex pipiens. The experiment in a line: Mosquito repellent activity in white mouse assessed as ratio of number of biting mosquito in treated to untreated control at 1.5 hrs. In kind it is functional.
With `CC(=O)OC1CC(C)CCC1C(C)C` (stereo not given), the Ratio was 38.7. Take `CC1(C)C2CC3OC3(C)C1C2` (stereo not given): the Ratio came to 37.8.

Consider `C=C(C)C1CC=C(CCOC(=O)CC)CC1` (stereo not given), for which the Ratio is reported as 63.6. With `CC(=O)OCCC1=CCC2CC1C2(C)C` (stereo not given) the figure was 60.8; with `CC(=O)OC1CC(C(C)(C)O)CC=C1C` (stereo not given), 81; with `CCCOCCC1=CCC2CC1C2(C)C` (stereo not given), 72.5. On to `CC(=O)OCCC1C2CCC(C2)C1(C)C` (stereo not given), for which the Ratio is 53. `CC1(C)C2CC=C(CCO)C1C2` (stereo not given) [Nopol]: the Ratio amounted to 69.

On to `C=C(C)C1CC=C(CCOC(C)=O)CC1` (stereo not given), for which the Ratio turned out to be 58.5. `CC1=CCC(C(C)(C)O)CC1OC=O` (stereo not given): the Ratio was determined as 90. As to `CCC(CCC1C2CCC(C2)C1(C)C)C(C)OC(C)=O` (stereo not given), the Ratio was 51.5. For `COCCC1=CCC2CC1C2(C)C` (stereo not given), the Ratio came out at 52.1. Regarding `CC1(C)C2CC=C(CCOC=O)C1C2` (stereo not given), the Ratio was determined as 56.1.

Turning to `CCCC(CCCC1C2CCC(C2)C1(C)C)OC(C)=O` (stereo not given), the Ratio was 51.7.

As to `CCC(=O)OCCC1=CCC2CC1C2(C)C` (stereo not given), the Ratio is 64.4. As for `CC1CCC(C(C)C)C(O)C1` (stereo not given) [MENTHOL], the Ratio is 53.

Take `CCC(=O)OCCC1C2CCC(C2)C1(C)C` (stereo not given): the Ratio came to 56.8.

`CCC(=O)OC1CC(C)CCC1C(C)C` (stereo not given): the Ratio is given as 40.5. As for `CCC(CCCC1C2CCC(C2)C1(C)C)OC(C)=O` (stereo not given), the figure is 50.2; as for `CCOCCC1=CCC2CC1C2(C)C` (stereo not given), 62.2.
